≈ marks a conversion by molar mass, not a printed value. Where two headings read alike, the source gives them in different places.

We go through five molecules from patent US20080125408A1, “PENEM PRODRUG” (Pfizer Inc, priority 2006, published 2008).

Data set [1] is described as follows: Liver S9 stability and conversion efficiency to sulopenem. Format: in vitro ADME, human. As to conditions: human; prodrug degradation; liver S9 1:10, 50 μM, pH 7.4, 37° C. The protocol:
Oral bioavailability can be predicted variously by factors including one or more of (1) GI tract stability, (2) Caco-2 permeability, (3) efficiency of conversion to sulopenem, and (4) high solubility. Accordingly, the sulopenem prodrugs of the invention were evaluated, as detailed below, for stability in human intestinal juice (HIJ), efficiency of conversion to sulopenem in human liver homogenate, whole blood conversion and solubility as measured in phosphate buffer pH 5.0. Liver S9 was prepared fresh from liver chunks stored at −70° C. for each analysis completed. Approximately 5 g of frozen liver tissue was homogenized to uniformity in 15 mL of ice cold 100 mM potassium phosphate (pH 7.4) buffer. The homogenate was then centrifuged at 9000 g for 20 minutes at 5° C. to isolate the S9 supernatant fraction. Each incubation was run at a 1:10 dilution of the S9 supernatant in 100 mM potassium phosphate (pH 7.4) buffer. Reactions (1 mL) were initiated by the addition of substrate (50 μM final) at 37° C. Stability and conversion efficiency were assessed in 1 mL incubations with heparinized whole blood at 37° C. For both S9 homogenates and whole blood incubations, aliquots (75 μL) were obtained at 0, 0.5, 1, 2, 3, 5, 10, and 20 minutes and quenched in 150 μL of 80/20 acetonitrile/100 mM ammonium acetate pH 4.5 containing an internal standard (ampicillin, 5 μg/mL). Samples were centrifuged at 3000 g for 10 minutes and the supernatants transferred to injection vials. First order degradation of the prodrug was monitored by LC/MS/MS as described below. Conversion to sulopenem was expressed as a percentage of the molar equivalent (50 μM) in a fortified sample. The results of the S9 and whole blood stability and conversion studies are shown in Table 2, where single values represent an average of two duplicate determinations.

A short description of data set [2]: Equilibrium solubility in phosphate buffer pH 5. As to conditions: phosphate buffer, pH 5, aqueous buffer, thermodynamic from solid.
The nature of data set [3]: Human Intestinal Juice (HIJ) stability studies. The format is in vitro ADME. As to conditions: pooled HIJ from 4 subjects, buffered pH 7.4, 37° C., substrate 1-300 μM; for Km: human, pooled human intestinal juice (HIJ). The protocol: In the HIJ experiments, HIJ from 4 individual subjects (1 mL each) was pooled with 1 mL of 600 mM potassium phosphate buffer pH 7.4. Aliquots of 300 μL×6 of the buffered human intestinal juice were incubated at 37° C. following fortification of substrate at concentrations of 300, 100, 30, 10, 3, and 1 μM. Two prodrug compounds could be run at the same time. Samples of 35 μL were taken at 0, 0.5, 1, 2, 10, and 20 minutes and quenched with 70 μL of 80/20 acetonitrile/100 mM ammonium acetate pH 4.5 containing an internal standard (ampicillin, 5 μg/mL). Samples were centrifuged at 3000 g for 10 minutes and the supernatants transferred to injection vials. First order degradation of the prodrug was monitored by LC/MS/MS as described below. The percentage of prodrug remaining versus time at each concentration was fitted to a first order decay function to determine the substrate depletion rate constant or kdep. A linear-log plot of kdep versus concentration could be fitted with the following equation where: [formula] […] In Michaelis-Menton terms, intrinsic clearance CLint represents the ratio of Vmax/Km when [S] is well below the Km. Substrate units for these studies were reported in μM and intrinsic clearance (CIint) in mL/min.

For data set [4] the following is noted: humans, about 500 mg equivalent dose; cited from earlier work.
Data set [5] has as its system Enterobacter aerogenes. The experiment in a line: MIC90 of sulopenem (in vitro activity). Format: cell-based. The conditions noted are these: Klebsiella aerogenes.
For data set [6], the system named is Staphylococcus saprophyticus. The experiment in a line: MIC90 of sulopenem (in vitro activity). Format: cell-based.
Data set [7] deals with Klebsiella pneumoniae ESBL+. The experiment in a line: MIC90 of sulopenem (in vitro activity). The format is cell-based.
For data set [8], the system named is Klebsiella oxytoca. The experiment in a line: MIC90 of sulopenem (in vitro activity). Format: cell-based. The protocol:
(§1) The in vitro activity of sulopenem (B9) (the parent acid) based on minimum inhibitory concentration (MIC) was evaluated against pathogens involved in […] community and hospital infections, as summarized in Table 1.

Data set [9] deals with Staphylococcus aureus oxacillin-S. Nature of the data set: MIC90 of sulopenem (in vitro activity). Format: cell-based. The procedure: as §1
Data set [10] deals with Klebsiella pneumoniae. The experiment in a line: MIC90 of sulopenem (in vitro activity). Format: cell-based. The protocol: as §1
Data set [11] deals with Streptococcus agalactiae (Group B). Nature of the data set: MIC90 of sulopenem (in vitro activity). The format is cell-based. The protocol:
as §1

The test system of data set [12] is Salmonella/Shigella. The experiment in a line: MIC90 of sulopenem (in vitro activity). Format: cell-based. The protocol:
as §1

Data set [13] deals with Prevotella spp. Nature of the data set: MIC90 of sulopenem (in vitro activity). The format is cell-based. The procedure:
as §1

Data set [14] concerns Listeria monocytogenes. The experiment in a line: MIC90 of sulopenem (in vitro activity). Format: cell-based. The protocol: as §1
Data set [15] has as its system Haemophilus influenzae β-lactamase−. Nature of the data set: MIC90 of sulopenem (in vitro activity). The format is cell-based.
Data set [16] deals with Clostridium perfringens. Nature of the data set: microbe, parasite or virus in culture. The format is cell-based.
For data set [17], the system named is Enterobacter cloacae. Nature of the data set: MIC90 of sulopenem (in vitro activity). Format: cell-based.
The subject of data set [18] is Haemophilus influenzae β-lactamase+. The experiment in a line: MIC90 of sulopenem (in vitro activity). The format is cell-based.
Data set [19] deals with Streptococcus pneumoniae levofloxacin-resistant. Nature of the data set: MIC90 of sulopenem (in vitro activity). Format: cell-based.
Data set [20] deals with Streptococcus pneumoniae penicillin-susceptible. The experiment in a line: MIC90 of sulopenem (in vitro activity). The format is cell-based.
Data set [21] concerns Moraxella catarrhalis β-lactamase−. Nature of the data set: MIC90 of sulopenem (in vitro activity). Format: cell-based.
Data set [22] has as its system Streptococcus pneumoniae penicillin-resistant. Nature of the data set: MIC90 of sulopenem (in vitro activity). Format: cell-based.
Data set [23] has as its system Streptococcus pneumonia penicillin-intermediate. Nature of the data set: MIC90 of sulopenem (in vitro activity). Format: cell-based. The conditions noted are these: Streptococcus pneumoniae.
For data set [24] the following is noted: in vivo; cited from earlier work.
The subject of data set [25] is Morganella morganii. The experiment in a line: MIC90 of sulopenem (in vitro activity). Format: cell-based.
The test system of data set [26] is Corynebacterium spp (not C. jeikeium). Nature of the data set: MIC90 of sulopenem (in vitro activity). The format is cell-based.
Data set [27] has as its system Citrobacter freundii. Nature of the data set: MIC90 of sulopenem (in vitro activity). Format: cell-based.
Data set [28] has as its system Pseudomonas aeruginosa, Acinetobacter spp., Stenotrophomonas maltophilia, multi-resistant enterococci and methicillin-resistant staphylococci. Nature of the data set: Antibacterial spectrum: pathogens against which there is no activity. Format: cell-based.
The test system of data set [29] is Citrobacter diversus. The experiment in a line: MIC90 of sulopenem (in vitro activity). Format: cell-based. As to conditions: Citrobacter koseri.
Data set [30] has as its system Streptococcus pyogenes (Group A). Nature of the data set: MIC90 of sulopenem (in vitro activity). Format: cell-based.
Data set [31] deals with Neisseria meningitides. Nature of the data set: MIC90 of sulopenem (in vitro activity). Format: cell-based.
Data set [32] has as its system Proteus mirabilis. Nature of the data set: MIC90 of sulopenem (in vitro activity). Format: cell-based.
Data set [33] concerns Viridans Streptococcus group. The experiment in a line: MIC90 of sulopenem (in vitro activity). Format: cell-based.
Data set [34] deals with Streptococcus bovis (Group D). Nature of the data set: MIC90 of sulopenem (in vitro activity). As to conditions: Streptococcus equinus. Format: cell-based.
The test system of data set [35] is Legionella pneumophila. Nature of the data set: microbe, parasite or virus in culture. The format is cell-based.
In data set [36] the test system is Bacteroides fragilis. Nature of the data set: MIC90 of sulopenem (in vitro activity). The format is cell-based.
For data set [37], the system named is Alloiococcus otitidis. The experiment in a line: MIC90 of sulopenem (in vitro activity). The format is cell-based. The conditions noted are these: Alloiococcus otitis.
Data set [38] relates to Escherichia coli. Nature of the data set: MIC90 of sulopenem (in vitro activity). Format: cell-based.
Data set [39] relates to Moraxella catarrhalis β-lactamase+. The experiment in a line: MIC90 of sulopenem (in vitro activity). Format: cell-based.

With `CCc1oc(=O)oc1COC(=O)C1=C(S[C@H]2CC[S@@+]([O-])C2)S[C@@H]2[C@@H]([C@@H](C)O)C(=O)N12` [Compound 1, (5-ethyl-2-oxo-1,3-dioxol-4-yl)methyl (5R,6S)-6-[(1R)-1-hydroxyethyl]-7-oxo-3-[[(1R,3S)-tetrahydro-1-oxido-3-thienyl]thio]-4-thia-1-azabicyclo[3.2.0]hept-2-ene-2-carboxylate], the half-life at 50 µM in data set [1] was 3.11 min. In data set [2], this molecule had a solubility of 1200 µg/mL (≈ 2520 µM). Also, in data set [3], the Km turned out to be 120 µM and the “HIJ CLint” value came to 0.14 mL/min.

Regarding `CCCc1oc(=O)oc1COC(=O)C1=C(S[C@H]2CC[S@@+]([O-])C2)S[C@@H]2[C@@H]([C@@H](C)O)C(=O)N12` [Compound 2, (5-propyl-2-oxo-1,3-dioxol-4-yl)methyl (5R,6S)-6-[(1R)-1-hydroxyethyl]-7-oxo-3-[[(1R,3S)-tetrahydro-1-oxido-3-thienyl]thio]-4-thia-1-azabicyclo[3.2.0]hept-2-ene-2-carboxylate], the half-life at 50 µM in data set [1] stood at 3.62 min. Further, in [2], the solubility turned out to be 507 µg/mL (≈ 1040 µM). Moreover, in data set [3], the Km worked out at 22 µM and the “HIJ CLint” value came to 0.16 mL/min.

Turning to `Cc1oc(=O)oc1COC(=O)C1=C(S[C@H]2CC[S@@+]([O-])C2)S[C@@H]2[C@@H]([C@@H](C)O)C(=O)N12` [Compound C1, (5-Methyl-2-oxo-1,3-dioxol-4-yl)methyl (5R,6S)-6-[(1R)-1-hydroxyethyl]-7-oxo-3-[[(1R,3S)-tetrahydro-1-oxido-3-thienyl]thio]-4-thia-1-azabicyclo[3.2.0]hept-2-ene-2-carboxylate], the half-life at 50 µM in [1] worked out at 2.1 min. The same molecule had a solubility in data set [2] of 453 µg/mL (≈ 981 µM). For the same molecule, in data set [3], the Km came to 172 µM and the “HIJ CLint” value came out at 0.13 mL/min.

Regarding `CC(O)C1C(=O)N2C(C(=O)OCOC(=O)C(C)(C)C)=C(SC3CC[S+]([O-])C3)SC12` (stereo not drawn) [POM ester], in [4], the “oral bioavailability” value is on record as “less than optimal oral bioavailability”.

For `C[C@@H](O)[C@H]1C(=O)N2C(C(=O)O)=C(S[C@H]3CC[S@@+]([O-])C3)S[C@H]12` [Sulopenem, (5R,6S)-6-[(1R)-1-hydroxyethyl]-7-oxo-3-[(1R,3S)-tetrahydro-1-oxido-3-thienylthio]-4-thia-1-azabicyclo[3.2.0]hept-2-ene-2-carboxylic acid], the MIC90 is 0.5 µg/mL (≈ 1.43 µM) in data set [5]; 0.5 µg/mL (≈ 1.43 µM) in [6]; 0.25 µg/mL (≈ 0.715 µM) in data set [7]; 0.125 µg/mL (≈ 0.358 µM) in data set [8]; 0.125 µg/mL (≈ 0.358 µM) in data set [9]; 0.125 µg/mL (≈ 0.358 µM) in [10]. Besides, the MIC90 was determined as 0.125 µg/mL (≈ 0.358 µM) in data set [11]; 0.125 µg/mL (≈ 0.358 µM) in data set [12]; 0.125 µg/mL (≈ 0.358 µM) in data set [13]; 0.125 µg/mL (≈ 0.358 µM) in data set [14]; 0.25 µg/mL (≈ 0.715 µM) in data set [15]; 0.06 µg/mL (≈ 0.172 µM) in [16]. The MIC90 was 1 µg/mL (≈ 2.86 µM) in [17]; 0.5 µg/mL (≈ 1.43 µM) in data set [18]; 0.5 µg/mL (≈ 1.43 µM) in data set [19]; 0.03 µg/mL (≈ 0.0858 µM) in data set [20]; 0.03 µg/mL (≈ 0.0858 µM) in [21]; 1 µg/mL (≈ 2.86 µM) in [22]. The MIC90 in data set [23] was found to be 0.25 µg/mL (≈ 0.715 µM); in data set [25], 2 µg/mL (≈ 5.72 µM); in data set [26], 2 µg/mL (≈ 5.72 µM); in data set [27] it was 0.25 µg/mL (≈ 0.715 µM); in data set [29], 0.06 µg/mL (≈ 0.172 µM); in data set [30], 0.03 µg/mL (≈ 0.0858 µM). Besides, the MIC90 in [31] was 0.06 µg/mL (≈ 0.172 µM); in data set [32], 0.5 µg/mL (≈ 1.43 µM); in data set [33] it was 0.25 µg/mL (≈ 0.715 µM); in data set [34], 0.06 µg/mL (≈ 0.172 µM); in [35], 0.06 µg/mL (≈ 0.172 µM); in data set [36], 0.5 µg/mL (≈ 1.43 µM). In addition, the figures for the MIC90 in data set [37], in data set [38] and in [39] were 1 µg/mL (≈ 2.86 µM), 0.06 µg/mL (≈ 0.172 µM) and 0.125 µg/mL (≈ 0.358 µM), respectively. In addition, in [24], the “oral bioavailability” value is on record as “not appreciably orally bioavailable”. In addition, in data set [28], the “antibacterial activity” value is given as “not active”.
